Consider 10 compounds from patent publication US20250177359A1, “COMPOUNDS FOR USE IN THE TREATMENT OF CANCER AND INFLAMMATORY CONDITIONS” (priority 2022, published 2025).

Each structure is given as a SMILES string. Like-named read-outs stand apart in the source and are kept apart here.

What is called IC50 is the concentration needed to halve the response being measured.

The target of one test is T1, PARP15 (Homo sapiens, UniProt Q460N3).
T1 sequence (Q460N3 1-678): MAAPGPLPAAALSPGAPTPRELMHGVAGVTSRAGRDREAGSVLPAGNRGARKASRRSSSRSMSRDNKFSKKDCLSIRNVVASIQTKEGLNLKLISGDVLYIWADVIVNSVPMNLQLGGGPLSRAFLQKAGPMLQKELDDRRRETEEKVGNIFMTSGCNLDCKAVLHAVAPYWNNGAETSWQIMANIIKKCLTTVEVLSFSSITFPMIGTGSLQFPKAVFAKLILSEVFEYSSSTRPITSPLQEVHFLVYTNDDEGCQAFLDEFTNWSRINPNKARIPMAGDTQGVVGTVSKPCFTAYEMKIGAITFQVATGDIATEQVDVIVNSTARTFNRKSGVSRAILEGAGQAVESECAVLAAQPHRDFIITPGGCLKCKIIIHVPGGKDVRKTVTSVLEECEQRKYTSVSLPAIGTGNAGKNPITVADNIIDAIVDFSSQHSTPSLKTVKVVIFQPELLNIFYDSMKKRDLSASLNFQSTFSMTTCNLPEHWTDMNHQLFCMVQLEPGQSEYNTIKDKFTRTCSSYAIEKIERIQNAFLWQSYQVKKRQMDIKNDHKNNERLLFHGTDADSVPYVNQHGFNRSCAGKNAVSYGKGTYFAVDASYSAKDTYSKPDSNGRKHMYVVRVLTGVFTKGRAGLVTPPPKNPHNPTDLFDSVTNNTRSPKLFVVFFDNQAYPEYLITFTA
The experiment in a line: biochemical. The procedure:
(§1) All starting materials, reagents, and solvents were purchased from common commercial suppliers and were used as such without further purification. […] Organic solutions were dried over anhydrous Na2SO4 and concentrated with rotary evaporator at low pressure. All the reactions were routinely checked by thin-layer chromatography (TLC) on silica gel 60F254 (Merck) and visualized by using UV and iodine. Flash chromatography separations were carried out on Merck silica gel 60 (mesh 230-400) or by using automated Buchi Reveleris X2-UV with column FP Ecoflex Si 12 g. Yields were of purified products and were not optimized. ^1HNMR spectra were recorded at 400 MHz (Bruker Avance DRX-400), while ^13CNMR spectra were recorded at 101 MHz (Bruker Avance DRX-400). Chemical shifts are given in ppm (δ) relative to TMS. […] Mating constant (J) are reported in Hz. The purity of the tested compounds was evaluated by HPLC analysis using Jasco LC-4000 instrument equipped with a UV-Visible Diode Array Jasco-MD4015 (Jasco Corporation, Tokyo, Japan), and XTerra MS C18 column, 5 μm×4.6 mm×150 mm (Waters Corporation, Massachusetts, USA). Chromatograms were analyzed by ChromNAV2.0 Chromatography Data System software. […] The peak retention time (ret. time) is given in minutes. […] 1-Isobutoxy-4-methoxy-2-nitrobenzene (113). Isobutyl alcohol (0.6 mL, 6.43 mmol) was added, under nitrogen atmosphere at 0° C., to a suspension of NaH (0.26 g, 6.43 mmol) in dry DMF. After 15 minutes, 1-fluoro-4-methoxy-2-nitrobenzene 112 (1 g, 5.84 mmol) was also added and the reaction mixture was stirred at 80° C. for 4 h. […] (2-Isobutoxy-5-methoxyphenyl)amine (114). Zn (1.57 g, 24 mmol) and NH4C1 (2.45 g, 40 mmol) were added to a solution of 113 (0.46 g, 2 mmol) in acetone/H2O (50 mL, ratio 5:1). The reaction mixture was stirred at 60° C. for 3 h and, then, it was filtered over celite. […] N-(2,5-diethoxyphenyl)thiourea (55). […] N-(2-isobutoxy-5-methoxyphenyl)thiourea (115). […] A solution of Br2 (0.2 mL, 3.3 mmol) in CHCl3 (5 mL) was slowly added to a suspension of 45 (0.6 g, 3.3 mmol) in CHCl3 (13 mL), at 0° C. The reaction mixture was stirred at r.t. for 4 h and, then, a 10% solution of Na2SO3 in water was added to the mixture. […] 4,7-Diethoxy-1,3-benzothiazol-2-amine (66). […] 4-Isobutoxy-7-methoxy-1,3-benzothiazol-2-amine (116). […] Hydrazine hydrate (0.23 mL, 4.77 mmol) and CH3COOH (0.12 mL, 2.1 mmol) were added to a suspension of 56 (0.29 g, 1.59 mmol) in ethylene glycol (8 mL), and the reaction mixture was stirred for 24 h at 125° C. […] 6-Ethyl-2-hydrazino-1,3-benzothiazole (69). […] 6-Ispropyl-2-hydrazino-1,3-benzothiazole (70). […] 2-Hydrazino-4,7-dimethoxy-1,3-benzothiazole (73). […] 2-Hydrazino-5,7-dimethoxy-1,3-benzothiazole (75). […] 2-Hydrazino-4,7-Diethoxy-1,3-benzothiazole (77). […] 2-Hydrazino-5-methyl[1,3]thiazolo[5,4-b]pyridine (100). […] A solution of 67 (0.13 g, 0.65 mmol) in formic acid (5 mL) was refluxed for 10 h. The reaction mixture was then poured into ice/water and the pH was neutralized using a saturated solution of NaHCO3.

The target of the next test is T2, PARP10 (Homo sapiens, UniProt Q53GL7).
T2 construct: made in house
T2 sequence (Q53GL7 1-1025): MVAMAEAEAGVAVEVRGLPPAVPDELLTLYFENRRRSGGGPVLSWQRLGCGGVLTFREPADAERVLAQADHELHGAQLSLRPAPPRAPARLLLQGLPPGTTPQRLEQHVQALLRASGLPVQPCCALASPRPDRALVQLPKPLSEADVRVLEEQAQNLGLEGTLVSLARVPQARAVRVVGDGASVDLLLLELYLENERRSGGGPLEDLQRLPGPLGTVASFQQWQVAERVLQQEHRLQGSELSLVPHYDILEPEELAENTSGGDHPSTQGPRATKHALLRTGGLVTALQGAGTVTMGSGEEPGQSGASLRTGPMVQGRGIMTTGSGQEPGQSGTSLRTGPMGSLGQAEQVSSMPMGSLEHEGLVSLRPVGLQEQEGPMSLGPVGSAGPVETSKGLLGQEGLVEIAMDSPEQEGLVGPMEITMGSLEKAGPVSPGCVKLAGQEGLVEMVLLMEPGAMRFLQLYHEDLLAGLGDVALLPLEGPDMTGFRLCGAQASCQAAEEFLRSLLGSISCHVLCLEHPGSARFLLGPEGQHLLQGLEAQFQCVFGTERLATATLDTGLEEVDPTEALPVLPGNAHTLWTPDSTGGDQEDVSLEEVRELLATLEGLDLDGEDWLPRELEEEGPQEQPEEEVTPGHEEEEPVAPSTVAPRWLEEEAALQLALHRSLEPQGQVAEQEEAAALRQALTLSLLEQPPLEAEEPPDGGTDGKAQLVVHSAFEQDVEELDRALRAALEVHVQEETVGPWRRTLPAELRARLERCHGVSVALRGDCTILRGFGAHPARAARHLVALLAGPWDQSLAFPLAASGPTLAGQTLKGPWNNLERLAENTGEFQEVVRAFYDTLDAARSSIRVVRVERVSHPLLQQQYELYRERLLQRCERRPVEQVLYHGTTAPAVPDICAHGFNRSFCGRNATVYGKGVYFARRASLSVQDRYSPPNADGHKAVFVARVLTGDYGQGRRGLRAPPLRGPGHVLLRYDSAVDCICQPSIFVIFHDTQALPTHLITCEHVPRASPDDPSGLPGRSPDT
The test can be described thus: Activity assay measuring NAD+ consumption, PARP10 (Tables 1-3). In kind it is biochemical.

A further test deals with T3, PARP2 (Homo sapiens, UniProt Q9UGN5).
T3 construct: made in house
T3 sequence (Q9UGN5 whole entry): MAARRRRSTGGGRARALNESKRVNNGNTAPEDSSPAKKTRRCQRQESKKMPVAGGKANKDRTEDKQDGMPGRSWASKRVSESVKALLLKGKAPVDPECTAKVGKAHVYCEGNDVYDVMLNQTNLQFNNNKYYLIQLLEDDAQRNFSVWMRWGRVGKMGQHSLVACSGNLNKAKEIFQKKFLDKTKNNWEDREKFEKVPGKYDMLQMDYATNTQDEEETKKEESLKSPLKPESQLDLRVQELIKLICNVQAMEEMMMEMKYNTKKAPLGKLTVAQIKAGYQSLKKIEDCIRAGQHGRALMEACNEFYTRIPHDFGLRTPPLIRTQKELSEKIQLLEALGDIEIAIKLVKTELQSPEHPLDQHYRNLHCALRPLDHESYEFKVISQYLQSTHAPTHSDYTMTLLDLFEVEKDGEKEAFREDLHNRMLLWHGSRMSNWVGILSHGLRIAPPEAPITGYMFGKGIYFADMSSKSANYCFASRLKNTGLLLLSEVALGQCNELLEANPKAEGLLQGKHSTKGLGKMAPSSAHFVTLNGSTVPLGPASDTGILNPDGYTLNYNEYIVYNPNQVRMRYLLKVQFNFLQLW
The test can be described thus: biochemical. Particulars: NAD+ consumption assay; > less than 50% inhibition at highest concentration, >> no inhibition. In kind it is biochemical. The procedure: as §1

The target in a further test is T4, TNKS2 (Homo sapiens, UniProt Q9H2K2).
T4 sequence (Q9H2K2 1-1166): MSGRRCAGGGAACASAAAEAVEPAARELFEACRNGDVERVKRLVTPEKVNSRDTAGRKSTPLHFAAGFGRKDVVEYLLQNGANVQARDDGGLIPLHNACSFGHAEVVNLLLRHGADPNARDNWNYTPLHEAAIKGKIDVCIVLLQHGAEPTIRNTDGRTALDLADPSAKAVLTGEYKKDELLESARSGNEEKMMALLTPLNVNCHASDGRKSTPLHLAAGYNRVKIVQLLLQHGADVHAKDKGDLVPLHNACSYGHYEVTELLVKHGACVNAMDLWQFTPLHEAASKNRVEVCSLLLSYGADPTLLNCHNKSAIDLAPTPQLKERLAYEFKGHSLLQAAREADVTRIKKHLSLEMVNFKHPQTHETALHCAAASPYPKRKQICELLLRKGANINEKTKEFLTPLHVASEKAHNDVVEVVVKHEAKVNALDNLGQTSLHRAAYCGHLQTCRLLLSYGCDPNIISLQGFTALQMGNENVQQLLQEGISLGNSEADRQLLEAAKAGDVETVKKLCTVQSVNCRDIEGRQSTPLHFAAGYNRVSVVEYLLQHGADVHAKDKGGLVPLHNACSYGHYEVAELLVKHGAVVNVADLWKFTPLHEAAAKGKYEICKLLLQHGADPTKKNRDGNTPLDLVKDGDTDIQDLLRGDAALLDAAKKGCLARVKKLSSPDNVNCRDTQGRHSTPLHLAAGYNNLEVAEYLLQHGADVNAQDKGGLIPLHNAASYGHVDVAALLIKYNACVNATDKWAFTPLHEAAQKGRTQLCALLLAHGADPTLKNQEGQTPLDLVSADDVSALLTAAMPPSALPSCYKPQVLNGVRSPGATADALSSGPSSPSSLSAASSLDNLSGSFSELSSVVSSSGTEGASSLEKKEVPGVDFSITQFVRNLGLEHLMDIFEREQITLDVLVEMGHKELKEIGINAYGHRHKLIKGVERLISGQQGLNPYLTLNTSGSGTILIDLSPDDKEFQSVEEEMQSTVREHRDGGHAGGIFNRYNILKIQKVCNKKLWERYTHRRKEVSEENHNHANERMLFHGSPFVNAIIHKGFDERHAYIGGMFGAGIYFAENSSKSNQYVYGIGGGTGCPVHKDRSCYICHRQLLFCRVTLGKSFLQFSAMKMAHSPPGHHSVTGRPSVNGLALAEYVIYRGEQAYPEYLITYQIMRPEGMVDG
The experiment in a line: biochemical. Particulars: read-out: TNKS2 IC50; NAD+ consumption assay; > less than 50% inhibition at highest concentration, >> no inhibition. The method, then: as §1

[1] abbreviates: read-out: PARP15 IC50, Tables 1-3 assay, > less than 50% inhibition, >> no inhibition at reported concentration, * value limited by protein concentration.
Setting [2] is: Tables 1-3 assay, > less than 50% inhibition, >> no inhibition at reported concentration, * value limited by protein concentration, read-out: PARP10 IC50.
[3] abbreviates: PARP10 IC50, Tables 1-3 assay, > less than 50% inhibition, >> no inhibition at reported concentration, * value limited by protein concentration.

For the compound `COc1ccc(OC)c2c1SC1=NNC(SC)N12` (stereo not drawn) [Compound 27, 5,8-Dimethoxy-3-(methylthio)-2,3-dihydro[1,2,4]triazolo[3,4-b][1,3]benzothiazole], the concentration for half-maximal inhibition (IC50) at PARP15 (setting [1]) was more than 10 µM; on PARP10 (setting [2]), more than 10000 nM.
Turning to `CC(=O)Nc1nnc2sc3cc(C)ccc3n12` [Compound 107, N-(7-methyl[1,2,4]triazolo[3,4-b][1,3]benzothiazol-3-yl)acetamide], the IC50 against PARP15 (PARP15 IC50, Tables 1-3 assay, > less than 50% inhibition, >> no inhibition at reported concentration, * value limited by protein concentration) worked out at 5.2 µM; at PARP10 (setting [3]) it was 2600 nM.
Turning to `c1cnc2sc3nncn3c2c1` [Compound 101, [1,2,4]Triazolo[3′,4′:2,3][1,3]thiazolo[5,4-b]pyridine], on PARP10, the “inhibition of PARP10 (in words)” value was “only weak inhibition”. Half-maximal inhibition against PARP10 (setting [3]) (IC50) required 30000 nM.
As to `COc1ccc(OC)c2c1SC1=NNC(NC(=O)c3ccc(Cl)cc3)N12` (stereo not drawn) [Compound 29, 4-Chloro-N-(5,8-dimethoxy-2,3-dihydro[1,2,4]triazolo[3,4-b][1,3]benzothiazol-3-yl)benzamide], the 50% inhibitory concentration (IC50) on PARP15 (setting [1]) is 7.9 µM; at PARP10 (setting [2]), more than 10000 nM.
With `Nc1nnc2sc3cc(Br)ccc3n12` [Compound 108, 7-Bromo[1,2,4]triazolo[3,4-b][1,3]benzothiazol-3-amine], the IC50 against PARP15 (PARP15 IC50, Tables 1-3 assay) was 0.15 µM; against PARP15 (PARP15 pIC50 ± SEM, Tables 1-3 assay), 0.145 µM; at PARP10 (PARP10 IC50, Tables 1-3 assay), 60 nM.
`CCOc1ccc(OCC)c2c1sc1nncn12` [Compound 102, 5,8-Diethoxy[1,2,4]triazolo[3,4-b][1,3]benzothiazole]: on PARP10, the “inhibition of PARP10 (in words)” value is recorded as “potent PARP10 inhibitors”. The compound further registered an IC50 against PARP10 (PARP10 IC50, Tables 1-3 assay) of 610 nM.
Turning to `CCc1ccc2c(c1)sc1nncn12` [Compound 7, 7-Ethyl[1,2,4]triazolo[3,4-b][1,3]benzothiazole], the half-maximal inhibitory concentration (IC50) was found to be 3.9 µM against PARP2 and 5.3 µM on TNKS2.
For the compound `CCOc1ccc(OCC)c2c1sc1nnc(N)n12` [Compound 103, 5,8-Diethoxy[1,2,4]triazolo[3,4-b][1,3]benzothiazol-3-amine], the “inhibition of PARP10 (in words)” value against PARP10 is “potent PARP10 inhibitors”. In addition, at PARP10 (PARP10 IC50, Tables 1-3 assay), the IC50 is 72 nM.
Take `Oc1cccc2c1sc1nncn12` [Compound 18, [1,2,4]Triazolo[3,4-b][1,3]benzothiazol-8-ol]: the values for the IC50 on PARP2 and at TNKS2 were 29 µM and 17 µM, respectively.
The matching figures for `COc1ccc2c(c1)sc1nncn12` [Compound 12]: 8.8 µM and 5.5 µM.
